{RR} = two arginine residues at the PNA terminus
How the values were obtained:
PBMC cells = test: Safety assessment by trypan blue assay in PBMC; format: cell-based; details: 500-4000 nM, 48 hours
Protocol: Control is PBS treated PBMC cells. n=3, data represented as mean±standard error mean (SEM).
Safety assessment by trypan blue assay […] blood mononuclear cells (PBMC) (ATCC® PCS-800-011™) were purchased from ATCC (Virginia, USA). The cells were regularly tested for Mycoplasma contamination using MycoAlert™ Mycoplasma detection kit (Lonza). All the cells used in the experiment were passaged less than 2 times. 10,000 PBMC cells were seeded in a 96 well plate. The cells were treated with 500 nM, 1000 nM, 2000 nM and 4000 nM PNA-155 and γtcPNA-155 for 48 hrs in an incubator. The dead cells were examined with trypan blue and further counted using an automated cell counter (Bio-rad).

miR-155 = miR-155 gene expression by RT-PCR in U2932 cells; format: cell-based, human; details: U2932, 500 nM, 48 hours, relative to scrambled control
Protocol: FIGS. 3A-F show cell culture-based functional assay in U2932 lymphoma cells. (3A) γtcPNA-155-TAMRA uptake in the U2932 lymphoma cell line: Representative flow cytometry traces of TAMRA fluorescence in U2932 cells after treatment with 500 nM dose of γtcPNA-155-TAMRA for 48 hours. The data was analyzed by FlowJo software. (3B) Normalized miR-155 gene expression levels in U2932 after treatment with phosphate buffer saline (PBS) as a control and with 500 nM dose of Scr-γtcPNA-155, PNA-155, γPNA-155 and γtcPNA-155 for 48 hours compared to average control U6 (n=3), data represented as mean±standard error mean (SEM), Statistical analysis was performed using Unpaired two-tailed t-test. Further, statistical analysis was performed relative to Scr-γtcPNA-155 treated cells. ***p<0.001. (3C) Gene expression level of miR-155 downstream genes, tumor suppressor proteins (FOXO3A, CUX1, SOCS1, CSF1R, JARID2, SHIP1, PICALM, PDCD4, BACH1, WEE1, TP53TG3, CASP3, PTEN) in U2932 cell line after treatment with PBS as a control and with after treatment with 500 nM of Scr-γtcPNA-155, PNA-155, γPNA-155 and γtcPNA-155 for 48 hours. Data is normalized with average GAPDH control (n=3), and represented as mean±SEM, *p<0.05. Unpaired two-tailed t-test was used for statistical analysis and analysis was performed relative to Scr-γtcPNA-155 treated cells. (3D) Gene expression level of miR-155 downstream genes MCL1 in U2932 cell line after treatment with PBS as a control and 500 nM of Scr-γtcPNA-155, PNA-155, γPNA-155 and γtcPNA-155 for 48 hours. Data is normalized with average GAPDH control (n=3), and represented as mean±SEM, *p<0.05, **p<0.01 and ***p<0.001. […] (3E) Representative western blot of Mcl-1 and its quantification (n=3 technical replicate) and (3F) Caspase-3 protein and its quantification (n=3 technical replicate) in U2932 cell line after treatment with 500 nM of Scr-γtcPNA-155, PNA-155 and γtcPNA-155 for 48 hours. […] Numbers above western blot panels represent relative quantification of the respective bands using ImageJ software and normalized relative to loading control and treatment control. […]

miR-155 downstream genes = test: Gene expression of miR-155 downstream genes by RT-PCR in U2932 cells; format: cell-based, human; details: U2932, 500 nM, 48 hours
Protocol: FIGS. 3A-F show cell culture-based functional assay in U2932 lymphoma cells. (3A) γtcPNA-155-TAMRA uptake in the U2932 lymphoma cell line: Representative flow cytometry traces of TAMRA fluorescence in U2932 cells after treatment with 500 nM dose of γtcPNA-155-TAMRA for 48 hours. The data was analyzed by FlowJo software. (3B) Normalized miR-155 gene expression levels in U2932 after treatment with phosphate buffer saline (PBS) as a control and with 500 nM dose of Scr-γtcPNA-155, PNA-155, γPNA-155 and γtcPNA-155 for 48 hours compared to average control U6 (n=3), data represented as mean±standard error mean (SEM), Statistical analysis was performed using Unpaired two-tailed t-test. Further, statistical analysis was performed relative to Scr-γtcPNA-155 treated cells. ***p<0.001. (3C) Gene expression level of miR-155 downstream genes, tumor suppressor proteins (FOXO3A, CUX1, SOCS1, CSF1R, JARID2, SHIP1, PICALM, PDCD4, BACH1, WEE1, TP53TG3, CASP3, PTEN) in U2932 cell line after treatment with PBS as a control and with after treatment with 500 nM of Scr-γtcPNA-155, PNA-155, γPNA-155 and γtcPNA-155 for 48 hours. Data is normalized with average GAPDH control (n=3), and represented as mean±SEM, *p<0.05. Unpaired two-tailed t-test was used for statistical analysis and analysis was performed relative to Scr-γtcPNA-155 treated cells. (3D) Gene expression level of miR-155 downstream genes MCL1 in U2932 cell line after treatment with PBS as a control and 500 nM of Scr-γtcPNA-155, PNA-155, γPNA-155 and γtcPNA-155 for 48 hours. Data is normalized with average GAPDH control (n=3), and represented as mean±SEM, *p<0.05, **p<0.01 and ***p<0.001. Statistical analysis was performed using Unpaired two-tailed t-test. Analysis was performed relative to Scr-γtcPNA-155 treated cells. (3E) Representative western blot of Mcl-1 and its quantification (n=3 technical replicate) and (3F) Caspase-3 protein and its quantification (n=3 technical replicate) in U2932 cell line after treatment with 500 nM of Scr-γtcPNA-155, PNA-155 and γtcPNA-155 for 48 hours. Data is represented as mean±SEM and unpaired two-tailed t-test was used for statistical analysis. *p<0.05 **p<0.01. Numbers above western blot panels represent relative quantification of the respective bands using ImageJ software and normalized relative to loading control and treatment control.
Gene expression by RT-PCR: 400,000 U2932 cells were seeded in a 12 well plate. The cells were treated with 500 nM PNA-155, gamma tcPNA-155, gamma PNA-155, Scr gamma tcPNA-155 or were PBS treated (control) for 48 hrs in an incubator (37° C. and 5% CO2). The cells were centrifuged at 2000 rpm for 4 mins at 4° C. The total RNA from the cell pellet was extracted using RNeasy® mini kit (Qiagen). The cDNA was prepared in thermal cycler (Bio-rad) using reverse transcriptase, RNase inhibitor, dNTPs, nuclease-free water and RT primers specific for miR-155 and U6. Random primers were used for the preparation of cDNA for downstream targets. The cDNA was amplified using miR-155 assay, U6 assay, or specific downstream target assays in CFX Connect™ Real-time PCR detection system (Bio-rad). The samples were subjected to polymerase activation (95° C. for 10 mins), followed by 40 cycles of denaturation (95° C. for 15 sec) and annealing (60° C. for 1 min). The 2^−ΔΔCT method was used to calculate the fold change in target genes.

Row | Substance | viability of PBMC cell lines (PBMC cells) | miR-155 inhibition (miR-155) | de-repression of miR-155 target tumor suppressor genes (miR-155 downstream genes) | reduction in MCL1 gene expression levels (miR-155 downstream genes) | increase in CSF1R levels (miR-155 downstream genes; in comparison to PNA-155) | increase in CUX1 levels (miR-155 downstream genes; in comparison to PNA-155) | increase in SHIP1 levels (miR-155 downstream genes; in comparison to PNA-155)
1 | γtcPNA-155: serine gamma tail-clamp anti-miR-155 PNA, RR-TJJJJ-OOO-ACCCCTATCACGATTAGCATTAA-RR, SEQ ID NO: 3 (all peptide nucleic acid (PNA); serine gamma PNA, tail-clamp TJJJJ via linkers, Arg-Arg at both ends) | did not notice a significant reduction in viability | ~90% | significant de-repression | 40% | 1.8 fold | 1.6 fold | 1.4 fold
2 | PNA-155: conventional full-length regular PNA (23mer), RR-ACCCCTATCACGATTAGCATTAA-RR, SEQ ID NO: 1 (all peptide nucleic acid (PNA), 5' {RR}, 3' {RR}) [reference compound] | did not notice a significant reduction in viability | approximately 80% | – | 10% | – | – | –

Reference: patent US20260092085A1, “SYNTHETIC TRIPLEX PEPTIDE NUCLEIC ACID-BASED INHIBITORS FOR CANCER THERAPY” (University of Connecticut, priority 2022, published 2026)
